The values below come from US4977175A, “4,5,6,7-tetrahydrobenzimidazole derivatives as 5HT3 -antagonists” (Yamanouchi Pharmaceutical Co., Ltd., priority 1988, dated 1990).

This assay has as its target T1, 5-HT3 receptor (Rattus norvegicus, UniProt P35563).
T1 construct: Wistar strain male rats of 9 week age were anesthesized; from tissue; host or cells: whole anesthetized Wistar rat in vivo (endogenous receptor; cardiac vagal afferents by own knowledge)
T1 sequence (P35563 24-483): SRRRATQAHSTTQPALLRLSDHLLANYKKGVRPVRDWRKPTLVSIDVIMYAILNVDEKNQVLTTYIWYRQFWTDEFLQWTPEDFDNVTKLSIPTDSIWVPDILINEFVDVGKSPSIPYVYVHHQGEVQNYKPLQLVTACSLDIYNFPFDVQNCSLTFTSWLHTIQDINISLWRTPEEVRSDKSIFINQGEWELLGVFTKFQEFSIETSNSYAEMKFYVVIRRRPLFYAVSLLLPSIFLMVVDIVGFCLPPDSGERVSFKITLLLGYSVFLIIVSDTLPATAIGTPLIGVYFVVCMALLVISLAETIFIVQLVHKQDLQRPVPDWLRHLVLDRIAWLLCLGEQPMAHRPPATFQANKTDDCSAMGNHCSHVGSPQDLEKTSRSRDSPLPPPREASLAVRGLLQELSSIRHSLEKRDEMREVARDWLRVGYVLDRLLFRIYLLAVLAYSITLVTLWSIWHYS
Nature of the assay: Inhibition of serotonin- or 2-methylserotonin-induced Bezold-Jarisch (BJ) reflex in anesthetized rats (5-HT3-antagonizing activity). Format: in vivo, Wistar strain male rats. To be noted: serotonin-induced BJ reflex in rats, read-out: BJ Reflex Inhibitory Activity (ED50). As for the experimental part:
Wistar strain male rats of 9 week age were anesthesized with intraperitoneally administering 1 g/kg of urethane. Under artificial respiration, blood pressure and heart rate were measured. Transient reduction in heart rate and in blood pressure induced by intravenous administration of serotonin or 2-methylserotonin which is a selective agonist of 5-HT3 was used as an index for the reaction via 5-HT3 receptor (Bezold-Jarisch reflex : Paintal, A.S., Physiol. Rev., 53, 159, 1973).
Inhibitory activity of the compounds of the present invention on serotonin-induced Bezold-Jarisch (BJ) reflex in rats is shown in the table below.

The structures appear in SMILES notation. Counter-ions that a name gives are not always drawn. Like-named read-outs stand apart in the source and are kept apart here.

One may read the ED50 as the dose that gives a 50% effect, or the effect in half of the subjects. For the compound `COc1ccccc1NC(=O)C1CCc2[nH]cnc2C1` (racemic) [Example 1, N-(2-methyloxyphenyl) -4,5,6,7-tetrahydrobenzimidazole-5carboxamide fumarate 0.8hydrate], the ED50 is, setting by setting: (iv) 0.32 µg/kg; (po) 5.9 µg/kg.

As to `CCOc1ccccc1NC(=O)C1CCc2nc[nH]c2C1.O=C(O)/C=C/C(=O)O` (stereo not shown) [Example 13, N-(2-Ethoxyphenyl)-4,5,6,7-tetrahydrobenzimidazole-5-carboxamide fumarate], the 50% effective dose (ED50) turned out to be 1.2 µg/kg (iv) and 6.6 µg/kg (po).
